Molecular target: menin protein (Homo sapiens (Human), UniProt O00255)
Test: Fluorescence polarization (FP) competitive binding assay, menin binding affinity
Conditions: menin protein 4 nM, probe 2 nM, room temperature 30 minutes
Procedure: A fluorescence polarization (FP) competitive binding assay was used to determine the binding affinities of representative menin inhibitors. A FAM labeled fluorescent probe was designed and synthesized based on a MLL1 peptide (FAM-MM2). Equilibrium dissociation constant (Kd) value of FAM-MM2 to menin protein was determined from protein saturation experiments by monitoring the total fluorescence polarization of mixtures composed with the fluorescent probe at a fixed concentration and the protein with increasing concentrations up to full saturation. Serial dilutions of the protein were mixed with FAM-MM2 to a final volume of 200 μl in the assay buffer (PBS with 0.02% Bovine γ-Globulin and 4% DMSO. 0.01% Triton X-100 was added right before assays). Final FAM-MM2 concentration was 2 nM. Plates were incubated at room temperature for 30 minutes with gentle shaking to assure equilibrium. FP values in millipolarization units (mP) were measured using the Infinite M-1000 plate reader (Tecan U.S., Research Triangle Park, N.C.) in Microfluor 1 96-well, black, v-bottom plates (Thermo Scientific, Waltham, Mass.) at an excitation wavelength of 485 nm and an emission wavelength of 530 nm.
The IC50, see Table 3, of representative Compounds of the Disclosure were determined in a competitive binding experiment. Mixtures of 5 μl of the tested compounds in DMSO and 195 μl of preincubated protein/probe complex solution in the assay buffer were added into assay plates which were incubated at room temperature for 30 minutes with gentle shaking. Final concentration of the menin protein was 4 nM, and final probe concentration is 2 nM. Negative controls containing protein/probe complex only (equivalent to 0% inhibition), and positive controls containing only free probes (equivalent to 100% inhibition), were included in each assay plate. FP values were measured as described above. IC50 values were determined by nonlinear regression fitting of the competition curves.

Sequence of menin protein (O00255 whole entry): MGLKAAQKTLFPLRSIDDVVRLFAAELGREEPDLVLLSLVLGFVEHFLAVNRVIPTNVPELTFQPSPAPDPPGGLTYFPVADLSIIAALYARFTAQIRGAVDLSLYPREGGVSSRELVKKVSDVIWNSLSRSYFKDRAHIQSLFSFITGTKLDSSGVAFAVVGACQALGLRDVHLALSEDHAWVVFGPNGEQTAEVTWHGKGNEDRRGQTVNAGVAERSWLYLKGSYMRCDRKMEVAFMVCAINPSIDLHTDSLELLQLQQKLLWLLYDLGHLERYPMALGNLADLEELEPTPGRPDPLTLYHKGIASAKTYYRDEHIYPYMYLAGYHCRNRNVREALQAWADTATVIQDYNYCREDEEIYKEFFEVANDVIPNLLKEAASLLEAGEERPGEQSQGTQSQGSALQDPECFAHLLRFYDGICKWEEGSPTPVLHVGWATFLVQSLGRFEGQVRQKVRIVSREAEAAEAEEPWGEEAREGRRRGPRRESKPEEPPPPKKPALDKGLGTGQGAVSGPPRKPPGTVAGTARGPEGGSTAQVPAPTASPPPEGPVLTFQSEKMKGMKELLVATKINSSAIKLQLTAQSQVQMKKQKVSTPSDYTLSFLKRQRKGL

Compound	IC50 [nM]
C=CC(=O)N1CC(S(=O)(=O)c2ccc(N3CC(CN4CCC([C@](C#N)(c5cccc(F)c5)[C@H]5CCC[C@@H]5OC(=O)NC)CC4)C3)cc2)C1 [Cpd. No. 2, (1S,2R)-2-((R)-(1-((1-(4-((1-acryloylazetidin-3-yl)sulfonyl)phenyl)azetidin-3-yl)methyl)piperidin-4-yl)(cyano)(3-fluorophenyl)methyl)cyclopentyl methylcarbamate]	374
C=CC(=O)Nc1cccc(S(=O)(=O)c2ccc(N3CC(CN4CCC([C@](C#N)(c5cccc(F)c5)[C@H]5CCC[C@@H]5OC(=O)NC)CC4)C3)cc2)c1 [Cpd. No. 4, (1S,2R)-2-((R)-(1-((1-(4-((3-acrylamidophenyl)sulfonyl)phenyl)azetidin-3-yl)methyl)piperidin-4-yl)(cyano)(3-fluorophenyl)methyl)cyclopentyl methylcarbamate]	300
C=CC(=O)N1CC(S(=O)(=O)c2ccc(N3CC(CN4CCC([C@@](Cn5ccnc5CC)(c5cccc(F)c5)[C@H]5CCC[C@@H]5NC(=O)OC)CC4)C3)cc2)C1 [Cpd. No. 8, methyl ((1S,2R)-2-((S)-1-(1-((1-(4-((1-acryloylazetidin-3-yl)sulfonyl)phenyl)azetidin-3-yl)methyl)piperidin-4-yl)-2-(2-ethyl-1H-imidazol-1-yl)-1-(3-fluorophenyl)ethyl)cyclopentyl)carbamate]	2
C=CC(=O)Nc1cccc(S(=O)(=O)c2ccc(N3CC(F)(CN4CCC([C@@](Cn5ccnc5CC)(c5cccc(F)c5)[C@H]5CCC[C@@H]5NC(=O)OC)CC4)C3)cc2)c1 [Cpd. No. 9, methyl ((1S,2R)-2-((S)-1-(1-((1-(4-((3-acrylamidophenyl)sulfonyl)phenyl)-3-fluoroazetidin-3-yl)methyl)piperidin-4-yl)-2-(2-ethyl-1H-imidazol-1-yl)-1-(3-fluorophenyl)ethyl)cyclopentyl)carbamate]	2
C=CC(=O)Nc1ccc(S(=O)(=O)c2ccc(N3CC(CN4CCC([C@@](C#N)(c5cccc(F)c5)[C@H]5CCC[C@@H]5OC(=O)NC)CC4)C3)cc2)cc1 [Cpd. No. 10, (1S,2R)-2-((S)-(1-((1-(4-((4-acrylamidophenyl)sulfonyl)phenyl)azetidin-3-yl)methyl)piperidin-4-yl)(cyano)(3-fluorophenyl)methyl)cyclopentyl methylcarbamate]	2
C=CC(=O)Nc1ccc(S(=O)(=O)c2ccc(N3CC(CN4CCC([C@](C#N)(c5cccc(F)c5)[C@H]5CCC[C@@H]5OC(=O)NC)CC4)C3)cc2)cc1 [Cpd. No. 11, (1S,2R)-2-((R)-(1-((1-(4-((4-acrylamidophenyl)sulfonyl)phenyl)azetidin-3-yl)methyl)piperidin-4-yl)(cyano)(3-fluorophenyl)methyl)cyclopentyl methylcarbamate]	2200
C=CC(=O)Nc1cccc(S(=O)(=O)c2ccc(N3CC(F)(CN4CCC([C@@](C#N)(c5cccc(F)c5)[C@H]5CCC[C@@H]5NC(=O)OC)CC4)C3)cc2)c1 [Cpd. No. 12, methyl ((1S,2R)-2-((S)-(1-((1-(4-((3-acrylamidophenyl)sulfonyl)phenyl)-3-fluoroazetidin-3-yl)methyl)piperidin-4-yl)(cyano)(3-fluorophenyl)methyl)cyclopentyl)carbamate]	42
C=CC(=O)N1CC(S(=O)(=O)c2ccc(N3CC(F)(CN4CCC([C@@](C#N)(c5cccc(F)c5)[C@H]5CCC[C@@H]5NC(=O)OC)CC4)C3)cc2)C1 [Cpd. No. 13, methyl ((1S,2R)-2-((S)-(1-((1-(4-((1-acryloylazetidin-3-yl)sulfonyl)phenyl)-3-fluoroazetidin-3-yl)methyl)piperidin-4-yl)(cyano)(3-fluorophenyl)methyl)cyclopentyl)carbamate]	24
C=CC(=O)N1CC(S(=O)(=O)c2ccc(N3CC(F)(CN4CCC([C@@](Cn5ccnc5CC)(c5cccc(F)c5)[C@H]5CCC[C@@H]5NC(=O)OC)CC4)C3)cc2)C1 [Cpd. No. 16, methyl ((1S,2R)-2-((S)-1-(1-((1-(4-((1-acryloylazetidin-3-yl)sulfonyl)phenyl)-3-fluoroazetidin-3-yl)methyl)piperidin-4-yl)-2-(2-ethyl-1H-imidazol-1-yl)-1-(3-fluorophenyl)ethyl)cyclopentyl)carbamate]	2
C/C=C/C(=O)N1CC(S(=O)(=O)c2ccc(N3CC(CN4CCC([C@@](C#N)(c5cccc(F)c5)[C@H]5CCC[C@@H]5NC(=O)OC)CC4)C3)cc2)C1 [Cpd. No. 56, methyl ((1S,2R)-2-((S)-(1-((1-(4-((1-((E)-but-2-enoyl)azetidin-3-yl)sulfonyl)phenyl)azetidin-3-yl)methyl)piperidin-4-yl)(cyano)(3-fluorophenyl)methyl)cyclopentyl)carbamate]	5
COC(=O)N[C@H]1CCC[C@@H]1[C@](C#N)(c1cccc(F)c1)C1CCN(CC2CN(c3ccc(S(=O)(=O)c4cccc(NC(=O)/C=C/CN5CCOCC5)c4)cc3)C2)CC1 [Cpd. No. 58, methyl ((1S,2R)-2-((S)-cyano(3-fluorophenyl)(1-((1-(4-((3-((E)-4-morpholinobut-2-enamido)phenyl)sulfonyl)phenyl)azetidin-3-yl)methyl)piperidin-4-yl)methyl)cyclopentyl)carbamate]	5
COC(=O)N[C@H]1CCC[C@@H]1[C@](C#N)(c1cccc(F)c1)C1CCN(CC2CN(c3ccc(S(=O)(=O)C4CN(C(=O)/C=C/CN5CCOCC5)C4)cc3)C2)CC1 [Cpd. No. 59, methyl ((1S,2R)-2-((S)-cyano(3-fluorophenyl)(1-((1-(4-((1-((E)-4-morpholinobut-2-enoyl)azetidin-3-yl)sulfonyl)phenyl)azetidin-3-yl)methyl)piperidin-4-yl)methyl)cyclopentyl)carbamate]	4
C=CC(=O)Nc1ccc(S(=O)(=O)c2ccc(N3CC(CN4CCC([C@@](C#N)(c5cccc(F)c5)[C@H]5CCC[C@@H]5NC(=O)OC)CC4)C3)cc2)cc1 [Cpd. No. 61, methyl ((1S,2R)-2-((S)-(1-((1-(4-((4-acrylamidophenyl)sulfonyl)phenyl)azetidin-3-yl)methyl)piperidin-4-yl)(cyano)(3-fluorophenyl)methyl)cyclopentyl)carbamate]	4
C/C=C/C(=O)Nc1cccc(S(=O)(=O)c2ccc(N3CC(CN4CCC([C@@](C#N)(c5cccc(F)c5)[C@H]5CCC[C@@H]5NC(=O)OC)CC4)C3)cc2)c1 [Cpd. No. 62, methyl ((1S,2R)-2-((S)-(1-((1-(4-((3-((E)-but-2-enamido)phenyl)sulfonyl)phenyl)azetidin-3-yl)methyl)piperidin-4-yl)(cyano)(3-fluorophenyl)methyl)cyclopentyl)carbamate]	4
COC(=O)N[C@H]1CCC[C@@H]1[C@](C#N)(c1cccc(F)c1)C1CCN(CC2CN(c3ccc(S(=O)(=O)c4cccc(NC(=O)/C=C/CN(C)C)c4)cc3)C2)CC1 [Cpd. No. 63, methyl ((1S,2R)-2-((S)-cyano(1-((1-(4-((3-((E)-4-(dimethylamino)but-2-enamido)phenyl)sulfonyl)phenyl)azetidin-3-yl)methyl)piperidin-4-yl)(3-fluorophenyl)methyl)cyclopentyl)carbamate]	2

Source: patent publication US11045448B2, “Piperidines as covalent menin inhibitors” (THE REGENTS OF THE UNIVERSITY OF MICHIGAN, priority 2017, dated 2021)
